Experimental data taken from BindingDB's records for doi:10.1016/s0960-894x(99)00237-1 (Warner-Lambert, 1999).

What was measured:
[1] = molecular target: T1, Human immunodeficiency virus type 1 protease (Human immunodeficiency virus 1, UniProt Q72874); assay: In vitro binding affinity against HIV protease at pH 6.2.
[2] = molecular target: T1, Human immunodeficiency virus type 1 protease; assay: Binding affinity towards HIV protease was determined
[3] = molecular target: T1, Human immunodeficiency virus type 1 protease; assay: ChEBML_157707; conditions: pH 6.2
Procedure: In vitro binding affinity against HIV protease at pH 6.2 was determined

Structure (SMILES)	IC50 [1]	Ki [2]	Ki [3]
Cc1cc(SC2C(=O)CC(CCc3ccccc3)(c3ccccc3)OC2=O)c(C(C)(C)C)cc1N (configuration not stated) [3-(4-Amino-2-tert-butyl-5-methyl-phenylsulfanyl)-4-hydroxy-6-phenethyl-6-phenyl-5,6-dihydro-pyran-2-one]	11 nM		
Cc1cc(SC2C(=O)CC(CCc3ccc(O)cc3)(C(C)C)OC2=O)c(C(C)(C)C)cc1NC(=O)c1ccccc1 (configuration not stated) [N-(5-tert-Butyl-4-{4-hydroxy-6-[2-(4-hydroxy-phenyl)-ethyl]-6-isopropyl-2-oxo-5,6-dihydro-2H-pyran-3-ylsulfanyl}-2-methyl-phenyl)-benzamide]	13 nM		
Cc1cc(SC2C(=O)CC(CCc3ccc(O)cc3)(C(C)C)OC2=O)c(C(C)(C)C)cc1NC(=O)c1ccncc1 (configuration not stated) [N-(5-tert-Butyl-4-{4-hydroxy-6-[2-(4-hydroxy-phenyl)-ethyl]-6-isopropyl-2-oxo-5,6-dihydro-2H-pyran-3-ylsulfanyl}-2-methyl-phenyl)-isonicotinamide]	5.1 nM		

The next lines start with the values.

IC50 [1]	Ki [2]	Ki [3]	Structure (SMILES)
11 nM			Cc1cc(SC2C(=O)CC(CCc3ccc(O)cc3)(C(C)C)OC2=O)c(C(C)(C)C)cc1N(C)C (configuration not stated) [3-(2-tert-Butyl-4-dimethylamino-5-methyl-phenylsulfanyl)-4-hydroxy-6-[2-(4-hydroxy-phenyl)-ethyl]-6-isopropyl-5,6-dihydro-pyran-2-one]
	0.07 nM	0.07 nM	Cc1cc(SC2C(=O)C[C@@](CCc3ccc(O)cc3)(C(C)C)OC2=O)c(C(C)(C)C)cc1N (stereo partly drawn) [(6S)-3-[(4-amino-2-tert-butyl-5-methylphenyl)sulfanyl]-4-hydroxy-6-[2-(4-hydroxyphenyl)ethyl]-6-(propan-2-yl)-5,6-dihydro-2H-pyran-2-one]
5.1 nM			Cc1cc(SC2C(=O)CC(CCc3ccc(O)cc3)(C(C)C)OC2=O)c(C(C)(C)C)cc1NC(=O)c1cccnc1 (configuration not stated) [N-(5-tert-Butyl-4-{4-hydroxy-6-[2-(4-hydroxy-phenyl)-ethyl]-6-isopropyl-2-oxo-5,6-dihydro-2H-pyran-3-ylsulfanyl}-2-methyl-phenyl)-nicotinamide]
